Measured values published in PubChem BioAssay (NCI).
≈ marks a conversion by molar mass, not a printed value.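 Grown in 96-well plates, cells were treated for 48 hours with each compound at five concentrations. Insufficient inhibition: endpoint recorded as highest concentration tested. Abbreviation: GI50, concentration required for 50% inhibition of growth. At the TGI there is no net growth.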

Columns and labels:
Assay in all cases: DTP human tumour cell line panel, 48 h; in the data active = GI50 below about 0.43 µM; inactive = the rest
786-0 renal = system: 786-0 renal
A498 renal = system: A498 renal
A549 NSCLC = system: A549 NSCLC
ACHN renal = system: ACHN renal
CAKI-1 renal = system: CAKI-1 renal
CCRF-CEM leukemia = system: CCRF-CEM leukemia
COLO 205 colon = system: COLO 205 colon
DU-145 prostate = system: DU-145 prostate
EKVX NSCLC = system: EKVX NSCLC
HCT-116 colon = system: HCT-116 colon
HCT-15 colon = system: HCT-15 colon
HL-60(TB) leukemia = system: HL-60(TB) leukemia
HOP-62 NSCLC = system: HOP-62 NSCLC
HOP-92 NSCLC = system: HOP-92 NSCLC
HS 578T breast = system: HS 578T breast
HT29 colon = system: HT29 colon
IGROV1 ovarian = system: IGROV1 ovarian
K-562 leukemia = system: K-562 leukemia
KM12 colon = system: KM12 colon
LOX IMVI melanoma = system: LOX IMVI melanoma
M14 melanoma = system: M14 melanoma
MALME-3M melanoma = system: MALME-3M melanoma
MCF7 breast = system: MCF7 breast
MDA-MB-231 breast = system: MDA-MB-231 breast
MDA-MB-435 = system: MDA-MB-435
MOLT-4 leukemia = system: MOLT-4 leukemia
NCI-H226 lung = system: NCI-H226 lung
NCI-H23 lung = system: NCI-H23 lung
NCI-H460 lung = system: NCI-H460 lung
NCI-H522 lung = system: NCI-H522 lung
NCI/ADR-RES ovarian = system: NCI/ADR-RES ovarian
OVCAR-3 ovarian = system: OVCAR-3 ovarian
OVCAR-4 ovarian = system: OVCAR-4 ovarian
OVCAR-5 ovarian = system: OVCAR-5 ovarian
OVCAR-8 ovarian = system: OVCAR-8 ovarian
PC-3 prostate = system: PC-3 prostate
RPMI-8226 leukemia = system: RPMI-8226 leukemia
RXF 393 renal = system: RXF 393 renal
SF-268 CNS = system: SF-268 CNS
SF-295 CNS = system: SF-295 CNS
SF-539 CNS = system: SF-539 CNS
SK-MEL-2 melanoma = system: SK-MEL-2 melanoma
SK-MEL-28 melanoma = system: SK-MEL-28 melanoma
SK-MEL-5 melanoma = system: SK-MEL-5 melanoma
SK-OV-3 ovarian = system: SK-OV-3 ovarian
SN12C renal = system: SN12C renal
SNB-19 CNS = system: SNB-19 CNS
SNB-75 CNS = system: SNB-75 CNS
SR leukemia = system: SR leukemia
SW-620 colon = system: SW-620 colon
T-47D breast = system: T-47D breast
TK-10 renal = system: TK-10 renal
U251 CNS = system: U251 CNS
UACC-257 melanoma = system: UACC-257 melanoma
UO-31 renal = system: UO-31 renal
BT-549 breast = system: BT-549 breast
HCC-2998 colon = system: HCC-2998 colon
UACC-62 melanoma = system: UACC-62 melanoma

COc1ccc(C(Cc2ccccc2)C2NC(=S)NC2=O)cc1 (stereo not given)
> 25 µM: TGI (786-0 renal) | TGI (A498 renal) | TGI (A549 NSCLC) | TGI (ACHN renal) | TGI (CAKI-1 renal) | TGI (CCRF-CEM leukemia) | TGI (COLO 205 colon) | TGI (DU-145 prostate) | TGI (EKVX NSCLC) | TGI (HCT-116 colon) | TGI (HCT-15 colon) | TGI (HL-60(TB) leukemia) | TGI (HOP-62 NSCLC) | TGI (HOP-92 NSCLC) | TGI (HS 578T breast) | TGI (HT29 colon) | TGI (IGROV1 ovarian) | TGI (K-562 leukemia) | TGI (KM12 colon) | TGI (LOX IMVI melanoma) | TGI (M14 melanoma) | TGI (MALME-3M melanoma) | TGI (MCF7 breast) | TGI (MDA-MB-231 breast) | TGI (MDA-MB-435) | TGI (MOLT-4 leukemia) | TGI (NCI-H226 lung) | TGI (NCI-H23 lung) | TGI (NCI-H460 lung) | TGI (NCI-H522 lung) | TGI (NCI/ADR-RES ovarian) | TGI (OVCAR-3 ovarian) | TGI (OVCAR-4 ovarian) | TGI (OVCAR-5 ovarian) | TGI (OVCAR-8 ovarian) | TGI (PC-3 prostate) | TGI (RPMI-8226 leukemia) | TGI (RXF 393 renal) | TGI (SF-268 CNS) | TGI (SF-295 CNS) | TGI (SF-539 CNS) | TGI (SK-MEL-2 melanoma) | TGI (SK-MEL-28 melanoma) | TGI (SK-MEL-5 melanoma) | TGI (SK-OV-3 ovarian) | TGI (SN12C renal) | TGI (SNB-19 CNS) | TGI (SNB-75 CNS) | TGI (SR leukemia) | TGI (SW-620 colon) | TGI (T-47D breast) | TGI (TK-10 renal) | TGI (U251 CNS) | TGI (UACC-257 melanoma) | TGI (UO-31 renal)

O=C1NC(=O)C(Cc2cccc(OCc3ccccc3)c2)C(=O)N1
inactive: GI50 (SR leukemia) 4.07 µg/mL (≈ 12.6 µM)

Nc1cccc(S(=O)(=O)Nc2nnc(S(N)(=O)=O)s2)c1
> 100 µM: TGI (786-0 renal) | TGI (A498 renal) | TGI (A549 NSCLC) | TGI (ACHN renal) | TGI (BT-549 breast) | TGI (CAKI-1 renal) | TGI (COLO 205 colon) | TGI (DU-145 prostate) | TGI (EKVX NSCLC) | TGI (HCC-2998 colon) | TGI (HCT-116 colon) | TGI (HCT-15 colon) | TGI (HL-60(TB) leukemia) | TGI (HOP-62 NSCLC) | TGI (HOP-92 NSCLC) | TGI (HT29 colon) | TGI (IGROV1 ovarian) | TGI (K-562 leukemia) | TGI (KM12 colon) | TGI (LOX IMVI melanoma) | TGI (M14 melanoma) | TGI (MALME-3M melanoma) | TGI (MCF7 breast) | TGI (MDA-MB-231 breast) | TGI (MDA-MB-435) | TGI (MOLT-4 leukemia) | TGI (NCI-H226 lung) | TGI (NCI-H23 lung) | TGI (NCI-H460 lung) | TGI (NCI-H522 lung) | TGI (NCI/ADR-RES ovarian) | TGI (OVCAR-3 ovarian) | TGI (OVCAR-4 ovarian) | TGI (OVCAR-5 ovarian) | TGI (OVCAR-8 ovarian) | TGI (PC-3 prostate) | TGI (RPMI-8226 leukemia) | TGI (RXF 393 renal) | TGI (SF-268 CNS) | TGI (SF-295 CNS) | TGI (SF-539 CNS) | TGI (SK-MEL-2 melanoma) | TGI (SK-MEL-28 melanoma) | TGI (SK-MEL-5 melanoma) | TGI (SK-OV-3 ovarian) | TGI (SNB-19 CNS) | TGI (SNB-75 CNS) | TGI (SR leukemia) | TGI (SW-620 colon) | TGI (T-47D breast) | TGI (TK-10 renal) | TGI (U251 CNS) | TGI (UACC-62 melanoma) | TGI (UO-31 renal)
